Laboratory results from patent US10160755B2 (Plexxikon Inc., priority 2015, dated 2018).

Biological target: T1, BA/F3-FLT3-ITD + F691L cells (Homo sapiens, UniProt P36888, F691L, cells depend on it, form not given)
T1 sequence (P36888 1-993 F691L): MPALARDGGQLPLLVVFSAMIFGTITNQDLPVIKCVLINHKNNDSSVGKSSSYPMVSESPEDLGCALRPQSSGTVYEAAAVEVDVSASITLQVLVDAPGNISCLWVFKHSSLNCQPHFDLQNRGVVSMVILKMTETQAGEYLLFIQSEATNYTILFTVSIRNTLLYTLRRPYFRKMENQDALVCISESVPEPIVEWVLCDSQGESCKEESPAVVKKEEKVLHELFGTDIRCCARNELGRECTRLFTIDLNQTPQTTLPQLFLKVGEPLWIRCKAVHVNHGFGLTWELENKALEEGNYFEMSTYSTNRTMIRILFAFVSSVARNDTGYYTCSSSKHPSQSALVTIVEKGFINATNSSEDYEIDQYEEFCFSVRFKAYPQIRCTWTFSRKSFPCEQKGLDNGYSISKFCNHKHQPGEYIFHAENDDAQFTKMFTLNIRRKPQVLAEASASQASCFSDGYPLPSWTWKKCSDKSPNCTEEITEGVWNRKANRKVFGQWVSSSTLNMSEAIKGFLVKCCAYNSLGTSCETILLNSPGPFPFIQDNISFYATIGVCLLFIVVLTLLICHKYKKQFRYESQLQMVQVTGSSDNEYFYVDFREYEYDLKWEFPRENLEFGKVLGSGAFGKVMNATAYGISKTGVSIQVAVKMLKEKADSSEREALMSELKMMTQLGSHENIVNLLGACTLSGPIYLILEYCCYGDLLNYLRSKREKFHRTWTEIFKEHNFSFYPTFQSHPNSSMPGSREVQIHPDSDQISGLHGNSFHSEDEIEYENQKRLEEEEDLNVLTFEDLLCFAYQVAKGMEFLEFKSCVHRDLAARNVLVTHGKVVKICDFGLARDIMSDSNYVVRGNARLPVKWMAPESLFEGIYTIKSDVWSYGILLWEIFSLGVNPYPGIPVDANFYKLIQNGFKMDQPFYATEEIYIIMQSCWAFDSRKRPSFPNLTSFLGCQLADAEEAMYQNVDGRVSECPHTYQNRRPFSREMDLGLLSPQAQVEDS
Experiment: BA/F3-FLT3-ITD + F691L cell proliferation assay (CellTiter-Glo)
Assay type: cell-based, murine
Settings: BaF3 FLT3 ITD/F691L cells; read-out: Cell Activity (IC50 μM) BaF3_FLT3_ITD/F691L
Outline: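 Three-day growth assay, IC50 from CellTiter-Glo ATP luminescence vs concentration. Compounds at 10 to 0.0046 μM (1:3 steps, final DMSO 0.2%) on 1×10^4 cells/well. Cells are IL-3-independent BA/F3 lines engineered to express full-length FLT3-ITD with the D835Y or the F691L mutation.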

GI50, 0.0001 to 1 µM:
CN1CCN(c2ccc(-c3cnc4[nH]cc(-c5ccc6ncn(C(C)(C)C)c6c5)c4n3)cc2)CC1 [P-341, 7-(3-tert-butylbenzimidazol-5-yl)-2-[4-(4-methylpiperazin-1-yl)phenyl]-5H-pyrrolo[2,3-b]pyrazine]
COc1cc(-c2cc3c(-c4ccc5ncn(C(C)(C)C)c5c4)c[nH]c3nn2)ccn1 [P-315, 5-(3-tert-butylbenzimidazol-5-yl)-3-(2-methoxy-4-pyridyl)-7H-pyrrolo[2,3-c]pyridazine]
CC(C)(C)n1cnc2ccc(-c3c[nH]c4ncc(-c5ccc(N6CCOCC6)nc5)cc34)cc21 [P-322, 4-[5-[3-(3-tert-butylbenzimidazol-5-yl)-1H-pyrrolo[2,3-b]pyridin-5-yl]-2-pyridyl]morpholine]
O=S1(=O)CCCCN1c1cc(-c2cnc3[nH]cc(-c4ccc5ncn(C6CCCNC6)c5c4)c3n2)ccn1 (stereo not shown) [P-310, 2-[4-[7-[3-(3-piperidyl)benzimidazol-5-yl]-5H-pyrrolo[2,3-b]pyrazin-2-yl]-2-pyridyl]thiazinane 1,1-dioxide]
CC(C)(C)n1cnc2ccc(-c3c[nH]c4ncc(-c5cnc(N6CCC(F)(F)CC6)nc5)nc34)cc21 [P-357, 7-(3-tert-butylbenzimidazol-5-yl)-2-[2-(4,4-difluoro-1-piperidyl)pyrimidin-5-yl]-5H-pyrrolo[2,3-b]pyrazine]
CC(C)(C)n1cnc2ccc(-c3c[nH]c4ncc(-c5ccc(N6CCC(F)(F)CC6)nc5)nc34)cc21 [P-356, 7-(3-tert-butylbenzimidazol-5-yl)-2-[6-(4,4-difluoro-1-piperidyl)-3-pyridyl]-5H-pyrrolo[2,3-b]pyrazine]
CC(C)(C)n1cnc2ccc(-c3c[nH]c4ncc(-c5ccnc(N6CCCCC6)c5)nc34)cc21 [P-338, 7-(3-tert-butylbenzimidazol-5-yl)-2-[2-(1-piperidyl)-4-pyridyl]-5H-pyrrolo[2,3-b]pyrazine]
Cc1ncc(C#Cc2cnc3[nH]cc(-c4ccc5ncn(C(C)(C)C)c5c4)c3c2)cn1 [P-383, 1-tert-butyl-6-[5-[2-(2-methylpyrimidin-5-yl)ethynyl]-1H-pyrrolo[2,3-b]pyridin-3-yl]benzimidazole]
CC(C)(C)n1cnc2ccc(-c3c[nH]c4ncc(-c5ccnc(N6CCCS6(=O)=O)c5)nc34)cc21 [P-294, 2-[4-[7-(3-tert-butylbenzimidazol-5-yl)-5H-pyrrolo[2,3-b]pyrazin-2-yl]-2-pyridyl]-1,2-thiazolidine 1,1-dioxide]
COc1cc(C#Cc2cnc3[nH]cc(-c4ccc5ncn(C(C)(C)C)c5c4)c3n2)ccn1 [P-279, 7-(1-(tert-butyl)-1H-benzo[d]imidazol-6-yl)-2-((2-methoxypyridin-4-yl)ethynyl)-5H-pyrrolo[2,3-b]pyrazine]
COc1cc(-c2cnc3[nH]cc(-c4ccc5ncn(C6(C(F)(F)F)CC6)c5c4)c3n2)ccn1 [P-312, 2-(2-methoxy-4-pyridyl)-7-[3-[1-(trifluoromethyl)cyclopropyl]benzimidazol-5-yl]-5H-pyrrolo[2,3-b]pyrazine]
CCN1CCN(c2cc(-c3cnc4[nH]cc(-c5ccc6ncn(C(C)(C)C)c6c5)c4n3)ccn2)CC1 [P-328, 7-(3-tert-butylbenzimidazol-5-yl)-2-[2-(4-ethylpiperazin-1-yl)-4-pyridyl]-5H-pyrrolo[2,3-b]pyrazine]
FC(F)(F)Cn1cc(-c2cnc3[nH]cc(-c4ccc5ncn(C6CCCNC6)c5c4)c3c2)cn1 (stereo not shown) [P-275, 1-(3-piperidyl)-6-[5-[1-(2,2,2-trifluoroethyl)pyrazol-4-yl]-1H-pyrrolo[2,3-b]pyridin-3-yl]benzimidazole]
CC(C)(C)n1cnc2ccc(-c3c[nH]c4ncc(-c5ccc(N6CCCCC6)nc5)nc34)cc21 [P-347, 7-(1-(tert-butyl)-1H-benzo[d]imidazol-6-yl)-2-(6-(piperidin-1-yl)pyridin-3-yl)-5H-pyrrolo[2,3-b]pyrazine]
c1cc(-c2cnc3[nH]cc(-c4ccc5ncn(C6CCCNC6)c5c4)c3n2)cc(N2CCCCC2)c1 (stereo not shown) [P-337, 7-[3-(3-piperidyl)benzimidazol-5-yl]-2-[3-(1-piperidyl)phenyl]-5H-pyrrolo[2,3-b]pyrazine]
CCN1CCN(c2cccc(-c3cnc4[nH]cc(-c5ccc6ncn(C(C)(C)C)c6c5)c4n3)c2)CC1 [P-330, 7-(3-tert-butylbenzimidazol-5-yl)-2-[3-(4-ethylpiperazin-1-yl)phenyl]-5H-pyrrolo[2,3-b]pyrazine]
CC(C)(C)n1cnc2ccc(-c3c[nH]c4ncc(-c5cccc(N6CCCCC6)c5)nc34)cc21 [P-336, 7-(3-tert-butylbenzimidazol-5-yl)-2-[3-(1-piperidyl)phenyl]-5H-pyrrolo[2,3-b]pyrazine]
CN1CCN(c2ccc(-c3cnc4[nH]cc(-c5ccc6ncn(C7CCCNC7)c6c5)c4n3)cc2)CC1 (stereo not shown) [P-344, 2-[4-(4-methylpiperazin-1-yl)phenyl]-7-[3-(3-piperidyl)benzimidazol-5-yl]-5H-pyrrolo[2,3-b]pyrazine]
CC(C)(C)n1cnc2ccc(-c3n[nH]c4ncc(-c5cccc(N6CCCS6(=O)=O)c5)cc34)cc21 [P-296, 2-[3-[3-(3-tert-butylbenzimidazol-5-yl)-1H-pyrazolo[3,4-b]pyridin-5-yl]phenyl]-1,2-thiazolidine 1,1-dioxide]
Cc1cc(C#Cc2cnc3[nH]cc(-c4ccc5ncn(C6CCCNC6)c5c4)c3n2)cc(C)n1 (stereo not shown) [P-283, 2-[2-(2,6-dimethyl-4-pyridyl)ethynyl]-7-[3-(3-piperidyl)benzimidazol-5-yl]-5H-pyrrolo[2,3-b]pyrazine]
COc1cc(C#Cc2cnc3[nH]cc(-c4ccc5ncn(C6CCCNC6)c5c4)c3n2)ccn1 (stereo not shown) [P-280, 2-((2-methoxypyridin-4-yl)ethynyl)-7-(1-(piperidin-3-yl)-1H-benzo[d]imidazol-6-yl)-5H-pyrrolo[2,3-b]pyrazine]
Cc1ncc(-c2cnc3[nH]cc(-c4ccc5ncn(C(C)(C)C)c5c4)c3n2)cn1 [P-289, 7-(3-tert-butylbenzimidazol-5-yl)-2-(2-methylpyrimidin-5-yl)-5H-pyrrolo[2,3-b]pyrazine]
CCN1CCN(c2ccc(-c3cnc4[nH]cc(-c5ccc6ncn(C(C)(C)C)c6c5)c4n3)cn2)CC1 [P-365, 7-(3-tert-butylbenzimidazol-5-yl)-2-[6-(4-ethylpiperazin-1-yl)-3-pyridyl]-5H-pyrrolo[2,3-b]pyrazine]
CC(C)(C)n1cnc2ccc(-c3c[nH]c4nnc(Cl)cc34)cc21 [P-314, 5-(3-tert-butylbenzimidazol-5-yl)-3-chloro-7H-pyrrolo[2,3-c]pyridazine]
COc1cc(-c2cnc3[nH]cc(-c4ccc5ncn(C6CCCN(S(C)(=O)=O)C6)c5c4)c3n2)ccn1 (stereo not shown) [P-281, 2-(2-methoxy-4-pyridyl)-7-[3-(1-methylsulfonyl-3-piperidyl)benzimidazol-5-yl]-5H-pyrrolo[2,3-b]pyrazine]
c1cc(N2CCCCC2)ccc1-c1cnc2[nH]cc(-c3ccc4ncn(C5CCCNC5)c4c3)c2n1 (stereo not shown) [P-346, 7-[3-(3-piperidyl)benzimidazol-5-yl]-2-[4-(1-piperidyl)phenyl]-5H-pyrrolo[2,3-b]pyrazine]
CCN1CCN(c2ccc(-c3cnc4[nH]cc(-c5ccc6ncn(C7CCCNC7)c6c5)c4n3)cc2)CC1 (stereo not shown) [P-359, 2-[4-(4-ethylpiperazin-1-yl)phenyl]-7-[3-(3-piperidyl)benzimidazol-5-yl]-5H-pyrrolo[2,3-b]pyrazine]
FC(F)n1cc(-c2cnc3[nH]cc(-c4ccc5ncn(C6CCCNC6)c5c4)c3c2)cn1 (stereo not shown) [P-274, 5-[1-(difluoromethyl)pyrazol-4-yl]-3-[3-(3-piperidyl)benzimidazol-5-yl]-1H-pyrrolo[2,3-b]pyridine]
